# Measured values as given in a melting point compilation (Tetko et al.; mined from patent text by program, amines drawn as free bases though some values may be those of a salt).
row,SMILES,melting point
1,COc1ccc(N2CCN(Cc3cnc(Cc4ccc(OC)c(OC)c4)c4cc(OC)c(OC)cc34)CC2)cc1,176 to 177 °C
2,CCCCc1nn(-c2ccccc2C(F)(F)F)c(=O)n1Cc1ccc(-c2ccccc2S(=O)(=O)NC(C)(C)C)cc1,168 to 170 °C
3,COc1ccc2c(c1Cl)C=CN(C(C)=O)C2,78 to 80 °C
4,Cc1ccc(S(=O)(=O)Nc2cccc(Sc3ccccc3)n2)cc1,128 to 130 °C
5,COc1ccc(N2CCN(c3ccc(-n4cnn(C)c4=O)cc3)CC2)cc1,246 °C
6,Cc1c(CC(=O)OCCO[N+](=O)[O-])cc(-c2ccc(S(C)(=O)=O)cc2)n1-c1ccc(F)cc1,110 to 112 °C
7,c1ccc(COc2ccc(COc3ccc(CCCn4ccnc4)cc3)cn2)cc1,84 to 85 °C
8,CCN(CC)CCOCCC1CCCCN1C(=O)N1c2ccccc2NC(=O)c2csc(C)c21 (stereo not given),105 to 107 °C
9,Oc1cc(C(F)(F)F)nn1C1CCCCO1 (stereo not given),129 to 130 °C
10,COc1ccc(C2CSc3ccccc3N(CC(=O)O)C2=O)cc1 (stereo not given),180 °C
11,NS(=O)(=O)c1ccc(-c2cc3n(c2-c2ccc(F)cc2)CCC3)cc1,207 °C
12,Cc1nc(Sc2cc(C(=O)O)nc3ccccc23)sc1CC(=O)O,219 to 220 °C
13,CC(C)[C@H](NC(=O)CS)C(=O)N1CCC[C@H]1C(=O)O,162 to 165 °C
14,COc1cc(COc2ccc(N)nn2)cc(OC)c1OC,142 to 144 °C
15,CCOC(=O)CC(=O)Nc1cccc2ccccc12,80 to 81 °C
16,CC(=O)Nc1ccc2c(c1)C(=O)C1(CC1)O2,211 to 212 °C
17,Cc1ccc(Cc2cnc(NCCN(Cc3ccccc3)c3ccccn3)[nH]c2=O)cn1,178 to 182 °C
18,Cc1oc(-c2ccccc2)nc1CCOc1ccc(C=O)cn1,99 to 100 °C
19,CCCCCCCCCCCCCCCCCC(=O)NC(C)Cc1cccc(C(F)(F)F)c1 (stereo not given),74 to 76 °C
20,Cc1cc(CCCCCOc2ccc(-c3nnco3)cc2)on1,84 to 86 °C
21,C=CC(=O)OCCNC(=O)C(C)ON(C(C(C)(C)C)P(=O)(OCC)OCC)C(C)(C)C (stereo not given),95 to 98 °C
22,CCC(=O)NCC=C1CCc2ccc3ncoc3c21,148 to 150 °C
23,CCCCCCOc1c(F)cc(F)c(C(N)=O)c1F,89 to 90 °C
24,O=C(c1ccccc1Cl)c1cc(Cl)cc(Br)c1I,86 to 87 °C
25,COc1cccc2c1CC1c3c(cc(OC)c(OC)c3-2)CCN1C (stereo not given),184 to 185 °C

row,SMILES,melting point
1,COc1c(-c2ccc3cc(NS(C)(=O)=O)ccc3c2)cc(N2CCCNC2=O)cc1C(C)(C)C,> 300 °C
2,OCCCc1cc(-c2ccc(Cl)cc2)n(-c2c(Cl)cncc2Cl)n1,108 to 110 °C
3,COc1ccc([N+](=O)[O-])c(C=O)c1,89 to 90 °C
4,O=C(Nc1cc(-n2cccn2)nc(-c2ccco2)n1)OCC1CCCC1,60 to 61.3 °C
5,CC1=NC(=NO)SC1(C)C,151 to 153 °C
6,"CC12CCC(CN([Si](C)(C)C)S(=O)(=O)C1)C2(C)C (single isomer, unassigned; (-))",63 to 73 °C
7,NC1=NC(c2ccc(OC(F)(F)F)cc2)(c2cccc(CCC3CC3)c2)C2=NCCCN12 (stereo not given),65 to 77 °C
8,O=C(O)Cc1c(C(=O)c2ccccc2)[nH]c2cc(Cl)cc(Cl)c12,214 to 218 °C
9,CCc1c(CCNC(=O)CCCCC(=O)OC)ccc(OC)c1OC,37 to 39 °C
10,CSc1ccc(NC(=N)c2ccccc2)cc1,129 to 131 °C
11,CCCCCCCCCCCCCCCCNc1ccc(C(=O)OC2COC(c3ccccc3)OC2)cc1 (stereo not given),115 to 117 °C
12,c1c[nH]c(C(c2ccc[nH]2)C23CC4CC(CC(C4)C2)C3)c1,168 to 169 °C
13,Cc1cc([N+](=O)[O-])cc(C=O)c1O,132 to 133 °C
14,C#Cc1cccc(Nc2ncnc3ccc(S(=O)(=O)n4ccc(C=CC(=O)Nc5ccccc5NC(=O)OC(C)(C)C)c4)cc23)c1,146 to 150 °C
15,Cc1cc2c(c3c1NC(=O)C(C)(C)C3)OC(CBr)C2C (stereo not given),192 to 193 °C
16,O=CN1CCN=C1CC(c1ccccc1)c1ccccc1,105 to 107 °C
17,CCCCCCCCCCCCCCCCCCOc1cc2ccccc2c(N=Nc2ccc(OC)cc2)c1O,95 to 97 °C
18,COc1cc(OC)nc(Sc2c([N+](=O)[O-])c(C)nn2C)n1,124 to 125 °C
19,COc1cccc(-n2c(-c3sc(Nc4ccc(Cl)cc4)nc3C)nc3ccccc3c2=O)c1,243 to 244 °C
20,CC(C)N(CCNc1nc(Nc2cccc(NS(C)(=O)=O)c2)nc2[nH]cnc12)C(C)C,226 to 230 °C
21,Oc1ccc(C(=C(c2ccccc2)C(F)(F)F)c2ccc(OCCN3CCOCC3)cc2)cc1,154 to 157 °C
22,OC(Cc1cc(-c2ccccc2)on1)N1CCOCC1 (stereo not given),134 to 136 °C
23,Cn1c(=O)n(CC2(C)Cn3cc([N+](=O)[O-])nc3O2)c2ccccc21 (stereo not given),203 to 204 °C
24,Cc1ccccc1-c1cn(C)cc(-c2ccccc2Cl)c1=O,87 to 91 °C
25,CN(C)C(=O)Nc1ccc2c(c1)C(=O)NC(=O)C2(C)C,256 to 258 °C
